Experimental data from article PMC9945182 (Chemical Research in Toxicology, 2023).
Read-outs that look alike come from different tables or passages of the source.

Columns and labels:
CYP2C19 = CYP2C19 (Homo sapiens, UniProt P33261); type: biochemical; details: 10 μM inhibitor; cotinine substrate; CYP2C19 microsomes
UGT1A9 = target: T1, UGT1A9 (Homo sapiens, UniProt O60656); type: biochemical; details: 3HC 30 mM; for decrease in 3HC-Gluc formation: UGT1A9 microsomes; for IC50: rec UGT1A9 microsomes
T1 sequence (O60656 26-530): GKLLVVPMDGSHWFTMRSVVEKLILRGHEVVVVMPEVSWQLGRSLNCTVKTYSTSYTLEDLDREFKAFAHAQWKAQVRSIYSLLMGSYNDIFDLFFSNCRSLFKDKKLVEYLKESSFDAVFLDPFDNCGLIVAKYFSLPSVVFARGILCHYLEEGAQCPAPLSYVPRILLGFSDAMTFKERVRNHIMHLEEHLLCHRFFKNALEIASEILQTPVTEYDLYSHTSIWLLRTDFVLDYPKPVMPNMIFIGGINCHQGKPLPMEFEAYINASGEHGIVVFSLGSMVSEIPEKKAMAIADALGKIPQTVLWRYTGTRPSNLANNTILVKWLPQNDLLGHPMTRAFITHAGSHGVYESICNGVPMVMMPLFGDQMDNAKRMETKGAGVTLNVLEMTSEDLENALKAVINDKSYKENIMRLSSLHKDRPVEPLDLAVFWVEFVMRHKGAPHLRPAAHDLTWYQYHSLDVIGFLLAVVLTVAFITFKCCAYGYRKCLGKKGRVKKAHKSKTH

UGT2B7 = target: T2, UGT2B7 (Homo sapiens, UniProt P16662); type: biochemical; details: for decrease in 3HC-Gluc formation: 3HC 30 mM, UGT2B7 microsomes
T2 sequence (P16662 24-529): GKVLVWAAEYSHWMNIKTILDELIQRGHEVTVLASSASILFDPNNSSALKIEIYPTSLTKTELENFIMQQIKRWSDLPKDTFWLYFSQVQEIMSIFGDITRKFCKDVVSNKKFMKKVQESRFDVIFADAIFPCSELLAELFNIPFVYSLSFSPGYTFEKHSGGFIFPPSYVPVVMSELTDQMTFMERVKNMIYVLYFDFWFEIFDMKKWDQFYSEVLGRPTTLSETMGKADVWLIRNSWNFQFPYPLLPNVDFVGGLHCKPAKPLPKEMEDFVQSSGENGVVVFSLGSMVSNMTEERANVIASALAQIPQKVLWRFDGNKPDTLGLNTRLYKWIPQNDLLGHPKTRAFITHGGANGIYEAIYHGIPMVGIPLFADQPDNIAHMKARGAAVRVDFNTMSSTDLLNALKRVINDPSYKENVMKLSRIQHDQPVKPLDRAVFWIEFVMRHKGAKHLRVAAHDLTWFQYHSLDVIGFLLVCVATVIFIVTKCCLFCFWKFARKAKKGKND

UGT2B17 = target: T3, UGT2B17 (Homo sapiens, UniProt O75795); type: biochemical; details: UGT2B17 microsomes; 3HC as substrate; screening
T3 sequence (O75795 24-530): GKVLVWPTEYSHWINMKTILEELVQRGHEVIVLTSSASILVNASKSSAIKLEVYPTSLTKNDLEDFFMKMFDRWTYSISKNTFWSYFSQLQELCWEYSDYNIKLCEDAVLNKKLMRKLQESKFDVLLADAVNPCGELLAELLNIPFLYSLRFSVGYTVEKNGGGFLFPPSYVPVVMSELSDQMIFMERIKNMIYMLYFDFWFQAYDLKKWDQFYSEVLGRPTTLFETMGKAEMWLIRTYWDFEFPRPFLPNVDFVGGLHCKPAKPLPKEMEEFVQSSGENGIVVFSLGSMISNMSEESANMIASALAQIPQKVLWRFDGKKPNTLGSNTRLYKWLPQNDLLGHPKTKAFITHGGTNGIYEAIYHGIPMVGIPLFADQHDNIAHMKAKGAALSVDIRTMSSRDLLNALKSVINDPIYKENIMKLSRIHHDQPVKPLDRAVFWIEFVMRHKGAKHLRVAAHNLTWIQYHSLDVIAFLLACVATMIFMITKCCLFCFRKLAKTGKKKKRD

[1] = to protein and labware; cited from earlier work

Sequence of CYP2C19 (P33261 whole entry): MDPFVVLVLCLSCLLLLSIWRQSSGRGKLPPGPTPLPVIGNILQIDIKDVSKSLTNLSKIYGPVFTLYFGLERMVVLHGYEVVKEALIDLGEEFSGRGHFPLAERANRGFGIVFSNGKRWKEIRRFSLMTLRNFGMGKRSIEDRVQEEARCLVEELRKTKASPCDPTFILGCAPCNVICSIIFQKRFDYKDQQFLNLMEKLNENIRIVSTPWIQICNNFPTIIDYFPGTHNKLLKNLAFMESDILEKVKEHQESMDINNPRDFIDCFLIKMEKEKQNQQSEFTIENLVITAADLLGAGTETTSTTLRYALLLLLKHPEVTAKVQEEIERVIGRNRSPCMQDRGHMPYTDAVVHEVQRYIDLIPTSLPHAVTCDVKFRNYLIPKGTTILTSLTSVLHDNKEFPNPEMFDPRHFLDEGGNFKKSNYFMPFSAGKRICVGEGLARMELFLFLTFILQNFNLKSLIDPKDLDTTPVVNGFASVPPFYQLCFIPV

SMILES	inhibition of COX formation (CYP2C19) [%]	decrease in 3HC-Gluc formation (UGT1A9; 1 μM CBD) [%]	decrease in 3HC-Gluc formation (UGT1A9; 10 μM CBD) [%]	IC50 (UGT1A9; IC50, 3HC-Gluc formation, 2% BSA) [µM]	IC50 (UGT1A9; IC50,u (binding-corrected IC50), 3HC-Gluc formation, IC50 × fu,inc) [µM]	decrease in 3HC-Gluc formation (UGT2B7; 1 μM CBD) [%]	decrease in 3HC-Gluc formation (UGT2B7; 10 μM CBD) [%]	inhibition at 100 μM (UGT2B7; human, microsomes from UGT2B7-overexpressing HEK293 cells, pH 7.4, probe 3HC (30 mM), 3HC-Gluc formation) [%]	effect on 3HC-Gluc formation (UGT2B17)	nonspecific binding [1]
C=C(C)[C@@H]1CCC(CO)=C[C@H]1c1c(O)cc(CCCCC)cc1O [7-OH-CBD, 7-hydroxy-cannabidiol]	15	–	–	–	–	–	–	–	–	–
C=C(C)[C@@H]1CCC(C)=C[C@H]1c1c(O)cc(CCCCC)cc1O [CBD, cannabidiol]	–	55	65	9.7 ± 1.5	0.37 ± 0.06	35	55	> 50	not inhibited	70–90%
